Laboratory results taken from ChEMBL document CHEMBL1201862, “PubChem BioAssay data set” (2004).
The source made the active and inactive calls.

Key:
[1] = tested on: HEK293; test: cells; settings: Homo sapiens
[2] = tested on: HEK293; test: cells; settings: Homo sapiens; remark: listed apart in the source
[3] = target: Cytochrome P450 3A4 (Homo sapiens, UniProt P08684);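 also: CYP3A4 tested as one member of a cytochrome P450 panel screen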
[4] = target: Glucose-6-phosphate 1-dehydrogenase (Homo sapiens, UniProt P11413); test: inhibition of Homo sapiens G6PD, dose series – biochemical, fluorescence, selectivity assay for P. falciparum G6PD inhibitor project, dose response (AID 504792); assay type: functional
[5] = target: T1, Rac GTPase-activating protein 1 (Homo sapiens, UniProt Q9H0H5); test: blockers of MgcRacGAP-driven Rac1 GTP hydrolysis – biochemical, ADP Hunter fluorescence, primary and confirmatory, confirmation (AID 624330); assay type: functional
T1 sequence (Q9H0H5 whole entry): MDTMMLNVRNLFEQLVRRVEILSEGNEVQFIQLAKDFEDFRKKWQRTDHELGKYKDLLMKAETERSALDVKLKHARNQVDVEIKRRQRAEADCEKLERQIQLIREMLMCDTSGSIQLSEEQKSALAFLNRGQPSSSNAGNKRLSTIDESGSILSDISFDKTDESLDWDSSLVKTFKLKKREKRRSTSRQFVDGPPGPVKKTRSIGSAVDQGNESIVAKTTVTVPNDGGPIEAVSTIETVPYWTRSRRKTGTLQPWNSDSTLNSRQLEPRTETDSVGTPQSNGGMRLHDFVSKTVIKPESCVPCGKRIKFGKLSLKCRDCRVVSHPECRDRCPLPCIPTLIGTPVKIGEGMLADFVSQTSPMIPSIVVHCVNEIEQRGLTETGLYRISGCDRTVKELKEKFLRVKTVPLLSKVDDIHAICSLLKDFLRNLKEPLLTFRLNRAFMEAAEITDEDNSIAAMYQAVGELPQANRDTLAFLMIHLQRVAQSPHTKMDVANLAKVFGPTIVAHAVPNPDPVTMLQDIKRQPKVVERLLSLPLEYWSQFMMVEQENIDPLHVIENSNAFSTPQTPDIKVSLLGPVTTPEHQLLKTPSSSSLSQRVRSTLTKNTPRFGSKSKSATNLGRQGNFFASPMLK

[6] = target: T2, Mannose-6-phosphate isomerase (Homo sapiens, UniProt P34949); test: MPI inhibition at elevated mannose 6-phosphate – biochemical, fluorescence intensity, high mannose 6-phosphate, primary screen (AID 1220)
T2 sequence (P34949 whole entry): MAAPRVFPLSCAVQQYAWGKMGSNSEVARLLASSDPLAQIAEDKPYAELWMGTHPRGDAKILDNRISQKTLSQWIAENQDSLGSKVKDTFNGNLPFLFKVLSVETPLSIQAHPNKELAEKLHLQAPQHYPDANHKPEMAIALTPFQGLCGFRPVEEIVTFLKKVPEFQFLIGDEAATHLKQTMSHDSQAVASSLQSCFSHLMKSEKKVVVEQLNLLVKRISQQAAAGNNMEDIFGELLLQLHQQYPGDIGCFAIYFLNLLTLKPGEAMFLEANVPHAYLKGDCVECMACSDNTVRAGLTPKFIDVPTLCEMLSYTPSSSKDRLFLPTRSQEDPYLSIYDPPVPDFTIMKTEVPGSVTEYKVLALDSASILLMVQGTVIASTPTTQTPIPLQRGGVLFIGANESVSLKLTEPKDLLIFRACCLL

[7] = target: T3, Cytochrome P450 1A2 (Homo sapiens, UniProt P05177);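 also: PubChem cytochrome P450 panel assay, CYP1A2 panel member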
T3 sequence (P05177 whole entry): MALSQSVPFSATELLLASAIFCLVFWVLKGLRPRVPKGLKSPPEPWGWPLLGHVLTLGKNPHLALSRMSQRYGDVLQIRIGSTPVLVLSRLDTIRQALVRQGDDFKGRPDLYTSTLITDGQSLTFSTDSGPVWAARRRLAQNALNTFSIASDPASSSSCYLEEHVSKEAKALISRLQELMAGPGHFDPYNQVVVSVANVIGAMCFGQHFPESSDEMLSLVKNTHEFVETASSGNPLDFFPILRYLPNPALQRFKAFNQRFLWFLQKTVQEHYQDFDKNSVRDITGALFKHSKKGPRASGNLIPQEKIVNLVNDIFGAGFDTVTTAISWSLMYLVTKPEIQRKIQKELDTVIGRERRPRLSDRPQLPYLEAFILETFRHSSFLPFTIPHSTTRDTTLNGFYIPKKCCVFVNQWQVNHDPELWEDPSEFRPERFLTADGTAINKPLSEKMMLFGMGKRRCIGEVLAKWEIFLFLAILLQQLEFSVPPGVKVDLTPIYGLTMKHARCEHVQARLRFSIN

[8] = target: Cytochrome P450 2C9 (Homo sapiens, UniProt P11712)
[9] = target: Cytochrome P450 2C19 (Homo sapiens, UniProt P33261); test: Cytochrome panel assay with activity outcomes. Panel member name: p450-cyp2c19 Compounds with AC50 equal or less than 10 uM are considered active; assay type: functional
[10] = target: Cytochrome P450 2D6 (Homo sapiens, UniProt P10635);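 also: CYP2D6 member of a cytochrome P450 panel assay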
[11] = tested on: BJ; test: cells; assay type: functional, cell-based; settings: Homo sapiens
[12] = Luminescence Cell-Based Dose Response HTS to Identify Inhibitors of 5'UTR Stem-Loop Driven Prion Protein mRNA Translation in H4 Neuroglioblastoma Cells. [Related pubchem assays: 1827 (Project Summary), 1813 (Primary HTS)]; assay type: functional
[13] = tested on: HEK293; test: cells; assay type: functional, cell-based; settings: Homo sapiens
[14] = alpha-synuclein stem-loop luciferase translation blockers – H4 neuroglioma cells, luminescence, confirmation (AID 1988); assay type: functional, cell-based
[15] = tested on: BJ; test: BJ-TERT fibroblast viability loss – cell-based, RAS-independent, luminescence, dose response (AID 1933); assay type: functional; settings: Homo sapiens
[16] = luciferase reporter signal suppression in cells – H4 neuroglioma cells, luminescence, dose response (AID 1990); assay type: functional, cell-based
[17] = target: Nucleotide-binding oligomerization domain-containing protein 2 (Homo sapiens, UniProt Q9HC29); test: inhibition of NOD2-driven NF-kB reporter – cell-based, luminescence, uHTS, HEK293 (AID 1566); assay type: functional
[18] = tested on: HEK293; test: NOD2 signaling inhibitors in MDP-stimulated cells, cell-based, uHTS, luminescence (AID 2001); assay type: functional; settings: Homo sapiens
[19] = tested on: HEK293; test: cells; assay type: functional, cell-based; settings: Homo sapiens; remark: listed apart in the source
[20] = tested on: HEK293; test: cells; assay type: functional, cell-based; settings: Homo sapiens; remark: listed apart in the source
[21] = tested on: HEK293; test: inhibition of NOD1-driven NF-kB reporter – cell-based, luminescence, uHTS, primary screen (AID 1578); assay type: functional; settings: Homo sapiens
[22] = DRD fibroblast viability loss – cell-based, non-viral oncogenic, luminescence, dose response (AID 1934); assay type: functional; settings: Homo sapiens
[23] = tested on: Escherichia coli; test: microbe, parasite or virus in culture
[24] = target: T4, Estrogen receptor (Homo sapiens, UniProt P03372);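 also: potency for inhibiting coactivator peptide recruitment to the receptor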
T4 sequence (P03372 whole entry): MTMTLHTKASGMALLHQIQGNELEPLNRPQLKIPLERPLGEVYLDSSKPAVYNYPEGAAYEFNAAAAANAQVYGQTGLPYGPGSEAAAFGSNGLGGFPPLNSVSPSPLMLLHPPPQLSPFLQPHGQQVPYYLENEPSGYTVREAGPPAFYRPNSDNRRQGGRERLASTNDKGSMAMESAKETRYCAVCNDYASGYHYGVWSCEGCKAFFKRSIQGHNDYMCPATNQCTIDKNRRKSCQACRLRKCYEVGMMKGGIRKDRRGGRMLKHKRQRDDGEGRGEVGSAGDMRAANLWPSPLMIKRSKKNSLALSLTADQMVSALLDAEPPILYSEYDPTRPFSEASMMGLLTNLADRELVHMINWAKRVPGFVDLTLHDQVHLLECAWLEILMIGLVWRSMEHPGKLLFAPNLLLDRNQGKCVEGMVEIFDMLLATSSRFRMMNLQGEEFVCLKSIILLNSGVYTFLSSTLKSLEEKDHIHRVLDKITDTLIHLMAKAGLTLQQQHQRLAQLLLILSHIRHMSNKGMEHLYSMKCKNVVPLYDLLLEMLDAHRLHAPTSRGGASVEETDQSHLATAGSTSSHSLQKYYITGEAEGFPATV

[25] = tested on: HeLa; test: ATP-based viability loss in HeLa cells – cell-based, CellTiter-Glo luminescence, cherry-pick samples, cytotoxicity control for MITF activator project, dose response (AID 540259); assay type: functional; settings: Homo sapiens

Chain of Glucose-6-phosphate 1-dehydrogenase (P11413 whole entry): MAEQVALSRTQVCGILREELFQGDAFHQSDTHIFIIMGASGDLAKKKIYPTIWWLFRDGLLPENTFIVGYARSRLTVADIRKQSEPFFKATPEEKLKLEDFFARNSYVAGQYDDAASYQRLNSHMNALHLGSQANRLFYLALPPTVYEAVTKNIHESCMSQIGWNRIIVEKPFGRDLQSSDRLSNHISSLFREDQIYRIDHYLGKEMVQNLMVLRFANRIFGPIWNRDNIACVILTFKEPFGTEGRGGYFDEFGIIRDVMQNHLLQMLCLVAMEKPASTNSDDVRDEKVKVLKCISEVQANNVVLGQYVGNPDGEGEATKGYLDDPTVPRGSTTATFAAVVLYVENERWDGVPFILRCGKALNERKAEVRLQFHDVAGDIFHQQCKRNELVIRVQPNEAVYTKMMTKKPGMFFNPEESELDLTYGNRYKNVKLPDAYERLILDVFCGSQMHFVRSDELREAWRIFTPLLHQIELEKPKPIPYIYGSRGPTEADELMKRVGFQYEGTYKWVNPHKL
Chain of Cytochrome P450 2C9 (P11712 whole entry): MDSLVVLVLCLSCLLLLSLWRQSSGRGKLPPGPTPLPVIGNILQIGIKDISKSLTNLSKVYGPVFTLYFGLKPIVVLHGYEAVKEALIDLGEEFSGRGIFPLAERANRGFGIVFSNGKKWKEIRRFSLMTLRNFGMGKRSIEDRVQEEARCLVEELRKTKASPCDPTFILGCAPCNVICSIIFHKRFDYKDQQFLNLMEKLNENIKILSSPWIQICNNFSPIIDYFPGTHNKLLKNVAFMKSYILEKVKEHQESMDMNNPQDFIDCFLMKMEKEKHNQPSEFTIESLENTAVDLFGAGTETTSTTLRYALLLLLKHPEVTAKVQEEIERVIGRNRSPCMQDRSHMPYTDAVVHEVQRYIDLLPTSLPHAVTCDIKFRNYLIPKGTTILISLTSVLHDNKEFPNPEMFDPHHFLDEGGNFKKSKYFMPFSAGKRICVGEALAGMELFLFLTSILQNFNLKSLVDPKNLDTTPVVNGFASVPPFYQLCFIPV
Chain of Cytochrome P450 2C19 (P33261 whole entry): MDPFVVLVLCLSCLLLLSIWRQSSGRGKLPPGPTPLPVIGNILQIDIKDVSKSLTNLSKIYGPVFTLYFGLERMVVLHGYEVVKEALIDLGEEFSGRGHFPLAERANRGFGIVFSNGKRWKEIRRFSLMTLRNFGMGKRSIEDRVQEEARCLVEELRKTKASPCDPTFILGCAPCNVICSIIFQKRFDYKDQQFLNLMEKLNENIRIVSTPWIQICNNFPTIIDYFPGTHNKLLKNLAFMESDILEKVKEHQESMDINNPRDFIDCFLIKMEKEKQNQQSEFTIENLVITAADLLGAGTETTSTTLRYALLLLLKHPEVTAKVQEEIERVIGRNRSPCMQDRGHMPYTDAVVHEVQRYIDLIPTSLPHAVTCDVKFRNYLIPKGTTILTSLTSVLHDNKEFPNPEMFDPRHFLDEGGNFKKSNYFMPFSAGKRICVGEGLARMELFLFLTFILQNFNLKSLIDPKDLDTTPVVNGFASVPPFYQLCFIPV
Chain of Cytochrome P450 3A4 (P08684 whole entry): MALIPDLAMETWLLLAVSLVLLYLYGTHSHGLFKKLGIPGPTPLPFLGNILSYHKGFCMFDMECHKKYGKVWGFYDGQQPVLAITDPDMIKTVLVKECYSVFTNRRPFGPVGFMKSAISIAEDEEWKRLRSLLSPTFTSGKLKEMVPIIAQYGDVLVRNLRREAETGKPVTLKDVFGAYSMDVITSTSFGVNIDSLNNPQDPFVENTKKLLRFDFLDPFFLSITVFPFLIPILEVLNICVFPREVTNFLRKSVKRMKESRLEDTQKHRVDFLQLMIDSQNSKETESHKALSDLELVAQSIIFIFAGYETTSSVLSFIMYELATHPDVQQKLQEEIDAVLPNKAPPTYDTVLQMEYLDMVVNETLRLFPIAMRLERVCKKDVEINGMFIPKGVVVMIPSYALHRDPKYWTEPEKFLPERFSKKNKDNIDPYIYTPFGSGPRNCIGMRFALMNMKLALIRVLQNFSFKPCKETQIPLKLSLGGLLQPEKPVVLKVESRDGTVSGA
Chain of Cytochrome P450 2D6 (P10635 whole entry): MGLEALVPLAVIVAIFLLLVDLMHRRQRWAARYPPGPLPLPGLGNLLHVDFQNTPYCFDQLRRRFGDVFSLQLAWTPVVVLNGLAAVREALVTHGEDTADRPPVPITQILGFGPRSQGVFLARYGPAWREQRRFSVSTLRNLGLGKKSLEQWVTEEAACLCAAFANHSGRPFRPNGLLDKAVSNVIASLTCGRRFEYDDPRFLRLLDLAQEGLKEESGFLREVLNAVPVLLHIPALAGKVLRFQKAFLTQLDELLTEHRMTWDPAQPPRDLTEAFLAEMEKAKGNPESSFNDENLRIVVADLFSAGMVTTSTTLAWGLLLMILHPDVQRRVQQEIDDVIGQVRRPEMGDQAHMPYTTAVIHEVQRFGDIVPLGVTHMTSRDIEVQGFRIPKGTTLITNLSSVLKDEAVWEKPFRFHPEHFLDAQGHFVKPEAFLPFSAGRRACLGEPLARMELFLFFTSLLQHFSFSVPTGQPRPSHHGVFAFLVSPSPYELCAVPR
Chain of Nucleotide-binding oligomerization domain-containing protein 2 (Q9HC29 whole entry, the tested form may be a part): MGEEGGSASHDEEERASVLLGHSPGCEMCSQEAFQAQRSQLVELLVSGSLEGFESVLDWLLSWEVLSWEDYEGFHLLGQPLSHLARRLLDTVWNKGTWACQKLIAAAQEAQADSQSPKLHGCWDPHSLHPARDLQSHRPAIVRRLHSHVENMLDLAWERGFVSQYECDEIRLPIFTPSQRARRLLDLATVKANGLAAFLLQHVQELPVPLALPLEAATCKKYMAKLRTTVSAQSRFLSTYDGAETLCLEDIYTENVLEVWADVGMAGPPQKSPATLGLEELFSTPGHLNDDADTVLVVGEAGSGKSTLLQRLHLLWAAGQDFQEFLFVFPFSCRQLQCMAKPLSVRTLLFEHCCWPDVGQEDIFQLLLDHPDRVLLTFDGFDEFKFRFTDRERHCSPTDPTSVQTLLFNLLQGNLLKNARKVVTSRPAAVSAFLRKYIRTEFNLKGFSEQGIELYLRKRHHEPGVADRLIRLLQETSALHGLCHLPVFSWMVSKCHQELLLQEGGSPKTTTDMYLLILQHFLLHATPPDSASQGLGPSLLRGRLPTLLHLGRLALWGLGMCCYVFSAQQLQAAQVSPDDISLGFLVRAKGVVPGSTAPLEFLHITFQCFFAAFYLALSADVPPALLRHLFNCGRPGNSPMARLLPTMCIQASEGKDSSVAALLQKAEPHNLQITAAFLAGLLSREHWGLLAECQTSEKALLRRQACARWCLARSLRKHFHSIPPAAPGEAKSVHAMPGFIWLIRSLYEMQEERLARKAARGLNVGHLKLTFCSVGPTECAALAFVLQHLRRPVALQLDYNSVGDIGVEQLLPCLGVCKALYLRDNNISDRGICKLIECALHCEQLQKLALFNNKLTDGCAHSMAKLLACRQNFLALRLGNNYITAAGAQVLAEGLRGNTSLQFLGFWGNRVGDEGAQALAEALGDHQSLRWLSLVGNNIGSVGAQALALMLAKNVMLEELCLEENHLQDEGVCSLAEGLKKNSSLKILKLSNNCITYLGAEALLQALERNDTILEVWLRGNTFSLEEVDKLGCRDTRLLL

Compound: CCCC(C)Sc1nc2c(=S)n(C)c(=O)n(C)c2[nH]1 (stereo not drawn)
- EC50 [1]: > 59.7 µM (inactive)
- EC50 [2]: > 59.7 µM (inactive)

Compound: Cn1c(=O)c(-c2cccc(C#N)c2)nc2cnc(Oc3ccccc3)nc21
- AC50 [3]: inconclusive

Compound: COc1cc(N)c2ncccc2c1SC
- IC50 [4]: > 80 µM (inactive)
- IC50 [5]: 41.3 µM (active)

Compound: C=CCOc1ccc(CNc2ccc3[nH]c(O)nc3c2)cc1OC
- IC50 [6]: > 50 µM (not active)
- IC50 [4]: 53.4 µM (inactive)

Compound: CCNc1nc(NC(C)C)nc(NS(=O)(=O)c2ccc(Cl)cc2)n1
- IC50 [4]: > 80 µM (inactive)

Compound: COc1ccc(NC(=O)c2ccc(-n3cccn3)nc2)c(OC)c1
- AC50 [7]: 2.82 µM (inconclusive)
- AC50 [8]: inconclusive
- AC50 ([9]; read-out: AC50): 14.1 µM (inconclusive)

Compound: CCCCCCCCCC[Si](C)(C)CCC(=O)N[C@@H](Cc1ccc(C)cc1)c1ccccc1
- AC50 [7]: 31.6 µM (inconclusive)
- AC50 [8]: inconclusive
- AC50 [10]: 39.8 µM (inconclusive)
- AC50 [9]: inconclusive

Compound: O=C1C=C(c2ccccc2)C[C@H](c2cccs2)[C@H]1n1nnc([N+](=O)[O-])n1
- EC50 [11]: 1.11 µM (active)
- EC50 [12]: 17.5 µM (active)
- IC50 [13]: > 20 µM (inactive)
- EC50 [14]: 9.23 µM (active)
- EC50 [15]: 0.681 µM (active)
- EC50 [16]: 6.52 µM (active)
- EC50 [17]: 11 µM (active)
- IC50 [18]: 9.37 µM (active)
- IC50 [19]: > 20 µM (inactive)
- IC50 [20]: > 20 µM (inactive)
- EC50 [21]: 9.57 µM (active)
- EC50 [22]: 0.668 µM (active)

Compound: O=C1C=CC(=O)N1c1ccc(-c2nc3ccccc3o2)cc1
- IC50 [4]: > 80 µM (inactive)

Compound: CC1CCCC(C)N1C(=O)c1cc(-c2ccc(Cl)c(Cl)c2)on1 (stereo not drawn)
- AC50 [8]: inconclusive

Compound: O=C(COC(=O)Cn1cnc2ccccc2c1=O)NCC12CC3CC(CC(C3)C1)C2
- AC50 [23]: 32.8 µM (active)

Compound: O=C1CC(c2ccc(F)cc2)Cc2nc(NCC3CCCO3)ncc21 (stereo not drawn)
- AC50 [3]: inconclusive
- IC50 [24]: > 50 µM (not active)

Compound: COc1ccc2nc3ccccc3nc2c1
- AC50 [25]: 73.5 µM (active)
